Source: ChEMBL document CHEMBL1147786, “Synthesis and evaluation of a mechanism-based inhibitor of a 3-deoxy-D-arabino heptulosonate 7-phosphate synthase” (Bioorg Med Chem Lett, 2006)

Experiment: Inhibition of Escherichia coli DAH7P synthase

For `O=C(O)CN(C[C@H](O)[C@@H](O)[C@@H](O)COP(=O)(O)O)CP(=O)(O)O`, the IC50 was 6.6 µM.
